Data as given in PubChem BioAssay (NCI).
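These data come from cells grown in 96-well plates and exposed to compound for 48 hours at five concentrations. Definition used: TGI = concentration required for complete inhibition of growth.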

Assays:
Assay in all cases: inhibition of tumour cell growth, NCI panel, 48 h
[1] = system: HCT-15 colon
[2] = system: SF-295 CNS
[3] = system: NCI-H23 lung
[4] = system: ACHN renal
[5] = system: MDA-MB-435
[6] = system: LOX IMVI melanoma
[7] = system: DU-145 prostate
[8] = system: OVCAR-3 ovarian
[9] = system: HL-60(TB) leukemia
[10] = system: NCI-H226 lung
[11] = system: HOP-92 NSCLC
[12] = system: HOP-62 NSCLC

Row | SMILES | TGI [1] [µM] | TGI [2] [µM] | TGI [3] [µM] | TGI [4] [µM] | TGI [5] [µM] | TGI [6] [µM] | TGI [7] [µM] | TGI [8] [µM] | TGI [9] [µM] | TGI [10] [µM] | TGI [11] [µM] | TGI [12] [µM]
1 | c1ccc(C(NCC2CCO2)(c2ccccc2)c2ccccc2)cc1 (configuration not stated) | 33.7 | 28.9 | 30.9 | 29 | 46 | 95.5 | 71.3 | 34.5 | 48.8 | 26.6 | 32.8 | –
2 | CC1=NC2=Nc3nc(C)cc[n+]3CN2C=C1 | > 100 | > 100 | > 100 | > 100 | > 100 | > 100 | > 100 | > 100 | – | > 100 | > 100 | > 100
3 | CSc1ccc(-c2cc(-c3nc4ccccc4[nH]3)no2)cc1 | 62.9 | > 100 | 66 | > 100 | 44.7 | 80.1 | > 100 | 55.7 | 55.3 | > 100 | > 100 | > 100
4 | Cc1c2c3ccccc3nc-2n(C)c2ccccc12 | 11.3 | 24.6 | 13.9 | 6.23 | 12.4 | – | 29.6 | 5.69 | – | 8.52 | 13.1 | 31.9
5 | O=C1CC(c2ccccc2)C2(C(=O)NC(=S)NC2=O)C(c2ccccc2)C1 (configuration not stated) | > 75 | > 75 | > 75 | > 75 | > 75 | > 75 | > 75 | > 75 | > 75 | > 75 | > 75 | > 75
6 | O=C(NCCN1CCOCC1)c1cn2c(ccc3sc4ccccc4c(=O)c32)n1 | > 100 | 44.9 | > 100 | > 100 | > 100 | 47.4 | > 100 | > 100 | 36.3 | > 100 | > 100 | > 100
7 | COc1cc2c(cc1OC)C(=O)N(c1ccc(O)cc1)C2=O | > 100 | > 100 | > 100 | > 100 | > 100 | > 100 | > 100 | > 100 | > 100 | > 100 | > 100 | > 100
8 | C=C1C(=O)O[C@H]2C[C@@]3(COC(C)=O)C=COC=C(COC(=O)C(C)C)C3CC12 (some centres not stated) | > 100 | > 100 | > 100 | > 100 | > 100 | > 100 | > 100 | > 100 | 63.2 | > 100 | – | > 100
9 | Cc1ccc(NC=O)c(-c2c(N)[nH]c(=S)[nH]c2=O)c1 | > 100 | > 100 | > 100 | > 100 | > 100 | > 100 | > 100 | > 100 | > 100 | > 100 | > 100 | > 100
10 | NC(N)=NC(N)=Nc1ccc(S(=O)(=O)O)cc1 | > 100 | > 100 | > 100 | > 100 | > 100 | > 100 | > 100 | > 100 | > 100 | > 100 | > 100 | > 100
11 | Cc1ccc(SC2C(=O)C3CC(OCc4ccccc4)C2(C)C3(C)C)cc1 (configuration not stated) | > 100 | > 100 | > 100 | > 100 | > 100 | – | > 100 | > 100 | > 100 | > 100 | > 100 | > 100
12 | CCN1CCC(O)(c2ccc(Oc3ccc(F)cc3)cc2)C(C(=O)c2ccc(Oc3ccc(F)cc3)cc2)C1 (configuration not stated) | 23.7 | 29.3 | 28 | 26.8 | 30.8 | 25.9 | 24.7 | 28.6 | – | 29.5 | 24.4 | 30.1
13 | CO/N=C(/C)c1cccc(Nc2nc3ccccc3c3[nH]c4ccccc4c23)c1 | 23.6 | 14.6 | 23.1 | 12.8 | 20.6 | 25 | 25 | 20.6 | 53.3 | 33.2 | – | 21.7
14 | CN(C(=O)Cc1ccccc1)n1cnn(CC(=O)OC(C)(C)C)c1=S | > 10 | > 10 | > 10 | > 10 | > 10 | > 10 | > 10 | > 10 | – | – | > 10 | > 10
15 | Cc1cnc2sn(-c3ccc([N+](=O)[O-])cc3)c(=O)c2c1 | > 100 | > 100 | > 100 | > 100 | > 100 | > 100 | > 100 | > 100 | – | > 100 | > 100 | 52.4
16 | Cc1nc(CC#N)n[nH]1 | > 100 | > 100 | > 100 | > 100 | > 100 | > 100 | > 100 | > 100 | – | – | > 100 | > 100
17 | CCOC(=O)c1[nH]c(-c2[nH]c(-c3[nH]c(-c4[nH]c(C(=O)OCC)c(C)c4C(=O)OCC)c(C(=O)OCC)c3C)c(C)c2C(=O)OCC)c(C(=O)OCC)c1C | > 100 | > 100 | > 100 | > 100 | > 100 | > 100 | > 100 | > 100 | > 100 | > 100 | – | > 100
18 | COC(=O)C1Cc2cc3c(cc2C1=O)CCCC3 (configuration not stated) | > 100 | > 100 | > 100 | > 100 | > 100 | > 100 | > 100 | > 100 | > 100 | 87 | – | > 100
19 | O=C(/C=C/c1ccc(-c2ccccc2)cc1)NCc1ccc(C(=O)NCc2ccccc2)cc1 | > 100 | > 100 | > 100 | > 100 | > 100 | > 100 | > 100 | > 100 | – | > 100 | > 100 | > 100
20 | O=C1c2ccccc2C(=O)c2cc(N=Nc3c(O)ccc4ccccc34)ccc21 | > 100 | > 100 | > 100 | > 100 | > 100 | > 100 | > 100 | > 100 | – | > 100 | > 100 | > 100

Row | SMILES | TGI [1] [µM] | TGI [2] [µM] | TGI [3] [µM] | TGI [4] [µM] | TGI [5] [µM] | TGI [6] [µM] | TGI [7] [µM] | TGI [8] [µM] | TGI [9] [µM] | TGI [10] [µM] | TGI [11] [µM] | TGI [12] [µM]
21 | COC(CN(C(C)=O)C1CCC2(SCCS2)c2[nH]c3ccccc3c21)OC (configuration not stated) | > 100 | – | > 100 | > 100 | > 100 | 1.71 | > 100 | > 100 | > 100 | > 100 | > 100 | > 100
22 | COc1ccc(-n2[nH]nc(C(N)=O)c2=O)cc1 | > 100 | > 100 | > 100 | > 100 | > 100 | > 100 | > 100 | 13.8 | > 100 | > 100 | – | > 100
23 | CCCCCCCCCCCCCCCCNC(=O)C(=O)/C=C(\O)c1ccc(C)cc1 | > 10 | > 10 | > 10 | > 10 | > 10 | > 10 | > 10 | > 10 | > 10 | > 10 | – | > 10
24 | O=C(O)C(O)C(O)C(=O)O (configuration not stated) | > 100 | > 100 | – | > 100 | > 100 | > 100 | > 100 | > 100 | > 100 | > 100 | > 100 | > 100
25 | COC(=O)c1ccc(/C=C2\Oc3ccccc3C2=O)cc1 | > 100 | > 100 | > 100 | > 100 | > 100 | – | > 100 | > 100 | 54.4 | > 100 | – | > 100
26 | C=CCC1CC(n2cc(C)c(=O)[nH]c2=O)OC1CO[Si](C)(C)C(C)(C)C (configuration not stated) | 29.1 | 40 | 27.1 | 29.8 | 28.2 | 26.2 | 31.1 | 31 | – | 28.4 | 31 | 34.7
27 | CC(NC(=O)NC(C)(C)C)NC(=O)C(N)CC(=O)O (configuration not stated) | > 100 | > 100 | > 100 | > 100 | > 100 | > 100 | > 100 | > 100 | – | > 100 | > 100 | > 100
28 | CN1C/C(=C\c2cccs2)C(O)/C(=C/c2cccs2)C1 (configuration not stated) | > 100 | > 100 | > 100 | > 100 | > 100 | > 100 | > 100 | > 100 | – | > 100 | > 100 | > 100
29 | C#C/C=C\CCCC/C=C\C#CC#CCCCC#CC#C[C@H](COS(=O)(=O)O)OS(=O)(=O)O | > 100 | > 100 | > 100 | > 100 | > 100 | > 100 | > 100 | > 100 | > 100 | – | > 100 | > 100
30 | O=C(OC1C2OC(=O)c3cc(O)c(O)c(O)c3Oc3cc4c(c(O)c3O)-c3c(cc(O)c(O)c3O)C(=O)OCC3OC(O)C(OC(=O)c5cc(O)c(O)c(O)c5Oc5cc6c(c(O)c5O)-c5c(cc(O)c(O)c5O)C(=O)OC1C(COC6=O)OC2O)C(OC(=O)c1cc(O)c(O)c(O)c1)C3OC4=O)c1cc(O)c(O)c(O)c1 (configuration not stated) | – | 57.5 | 62.6 | > 100 | 42.6 | 59.7 | > 100 | > 100 | 44.4 | > 100 | 58.5 | 54.3
31 | COc1c(/C=C/C(C)(C)O)cc(C2CC(=O)c3c(O)cc(O)cc3O2)cc1CC=C(C)C (configuration not stated) | 17.5 | 14.8 | 18.3 | 14.3 | 15.3 | 11.6 | 17.4 | – | 30.8 | 17.8 | 17.8 | –
32 | Cc1nc(C)c(N2CCN(S(=O)(=O)N(Cc3ccccc3)Cc3ccccc3)CC2)c(=O)[nH]1 | > 100 | > 83.6 | 56.5 | > 73 | > 100 | > 100 | > 100 | > 100 | > 100 | – | > 78.1 | 37.9
33 | Cn1c2ccccc2c2c3c(c4c5ccccc5n(C)c4c21)C(=O)NC3=O | > 100 | > 76.5 | > 100 | – | > 100 | > 100 | > 100 | – | – | > 100 | > 100 | > 55.8
34 | O=C1C(Br)=C(c2ccccc2)O/C1=C/C(=O)c1ccc(Br)cc1 | > 100 | – | > 100 | > 100 | > 100 | – | > 100 | > 100 | 52.4 | > 100 | > 100 | > 100
35 | CCCC(CCC(N)=O)(CCC(N)=O)[N+](=O)[O-] | > 100 | > 100 | > 100 | > 100 | > 100 | – | > 100 | – | > 100 | > 100 | > 100 | –
36 | [N-]=[N+]=NC1OC(=O)C(Cl)=C1N=P(c1ccccc1)(c1ccccc1)c1ccccc1 (configuration not stated) | > 10 | > 10 | – | > 10 | > 10 | > 10 | > 10 | > 10 | > 10 | > 10 | – | > 10
37 | O=C(/C=C/c1cccc(Oc2ccccc2)c1)NCc1ccc(C(=O)NCc2ccccc2)cc1 | > 100 | 79.4 | > 100 | > 100 | > 100 | > 100 | > 100 | > 100 | – | 88.1 | > 100 | 18.8
38 | C/C(=N\N=C(\N)SB(F)F)c1ccc2ccccc2c1 | > 100 | > 100 | > 100 | > 100 | > 100 | > 100 | > 100 | – | – | > 100 | > 100 | –
39 | CC(C)(C)OC(=O)N(CCCCNC(=O)OCc1ccccc1)CCCNC(=O)OCc1ccccc1 | > 100 | > 100 | > 100 | 22.6 | > 100 | – | > 100 | > 100 | 53.9 | > 100 | 99.1 | > 100
